Values quoted from earlier work, collected in paper PMC3161514 (Chemistry & biology, 2011).

Assays:
[1] = tested on: vancomycin-resistant Enterococci (VRE); settings: MIC values among the lowest reported for lantibiotics, ref Ekkelenkamp, et al., 2005, Verhoef
[2] = tested on: methicillin-resistant S. aureus (MRSA); settings: MIC values among the lowest reported for lantibiotics, ref Ekkelenkamp, et al., 2005, Verhoef
[3] = tested on: several strains of S. aureus; settings: against several strains of S. aureus; ref Castiglione, et al., 2008

Substance | Activity against VRE [1] | Activity against MRSA [2] | Potency relative to epidermin [3]
epilancin 15X | active | active | 
microbisporicin |  |  | two orders of magnitude more potent
